Measured values: patent publication US5530157A, “Anti-inflammatory benzoic acid derivatives” (Scios Nova Inc., priority 1995, dated 1996)

These compounds were tested on human umbilical vein endothelial cells (assay: INF-γ HUVEC assay: adherence of PMN to human umbilical vein endothelial cells). Details: HUVECs with INF-γ 1 unit/mL 20 hrs, PMN activated with 50 ng/mL TNF, read-out: IC50 to inhibit adhesion, IFN-γ HUVECS.
Format: cell-based
Excerpt: (§1) Several in vitro assays were employed to determine the ability of compounds of the invention to function as anti-inflammatory agents. One group of assays measured the ability of the compounds to inhibit adherence of polymorphonuclear neutrophils to serum coated wells (in the presence of either TNF-α or PAF) or to human umbilical vein endothelial cells (in the presence of INF-γ). Another group of assays measured the ability of the compounds to inhibit the release of elastase or superoxide from activated neutrophils. These assays were performed in the following manner.
(§2) Isolation of PMN: Blood was drawn into syringes containing heparin (1 U/mL), from human volunteers (free of any medication for at least 48 hrs). 30 mL of blood was layered over a gradient of 10 mL 1.077 g/mL Histpaque (Sigma, St. Louis, Mo.), and centrifuged at room temperature, 400×g for 20 min. All subsequent manipulations were carried out at room temperature, with endotoxin free reagents, and using polypropylene pipettes and tubes, to prevent activation of the PMN. The pinkish PMN layer immediately above the RBC was collected and washed 2× with Hank's buffered salt solution with calcium and magnesium, 0.2% glucose, and 10 mM HEPES, pH 7.2 (HBSS++) by centrifugation at 400×g for 10 min. Pellets were suspended in 8 mL 0.9% NaCl, and RBC lysed by the addition of 24 mL water for 40 sec, followed by the addition of 8 mL of 3.6% NaCl. After centrifugation at 200×g for 8 min, RBC ghosts were aspirated from the top of the PMN pellet, and cells washed with HBSS++. PMN adherence to protein substrates: 96 well tissue culture plates were coated with 10% pooled human serum (North American Biological,;, Miami, Fla.) in phosphate buffered saline (PBS) for 1 hr at 37° C., followed by washing 3× with PBS. Test compounds were prepared in DMSO as 100× stocks. PMN (4×10^6 /mL) were preincubated with test compounds for 10 min at 37° C. in serum-coated wells. Tumor necrosis factor (TNF-α) was added to 3 nM or platelet aggregation facor (PAF) to 1 μM, and adherence was carried out for 20 or 10 min, respectively. Nonadherent cells were aspirated, and wells washed two times with warm PBS with calcium and magnesium, with blotting of the inverted plate following each aspiration. Adherent PMN were quantitated using a BCA protein assay (Pierce, Rockford, Ill.).
INF-γHUVEC Assay. Primary human umbilical vein endothelial cells (HUVECs) from Clonetics Corp. (San Diego, Calif.) were seeded at 20,000 cells per wall in a 96 well tissue culture plate that was coated with fibronectin, for 45 min and then twice rinsed with phosphate buffered saline. To the culture media (M199, 80%; FBS, 20%; […] endothelial cell growth factor (Maciag et all, Proc. Natl. Acad. Sci. USA (1979) 76(11):5674-5678), 0.1 mg/mL heparin; 5% CO2; 37° C.) was added INF-γ (R&D Systems) at 1 unit/mL for 20 hrs. Isolated PMNs were loaded with the fluorescent dye BCECF AM (Molecular Probes) by incubating 1×10^7 cells/mL in HBSS with 4 μM dye for 30 min at 37° C. The PMNs were incubated with test compound for 10 min at 37° C., then activated with 50 ng/mL TNF and immediately added to the HUVECs which had been rinsed twice with HBSS+1% human serum. The co-culture plate was incubated at 37° C. for 20 min followed by gentle washing (twice) with HBSS+1% human serum. The extent of adherence was assessed by measuring the amount of fluorescence (485-535 nm filter) in each well with a fluorescence plate reader (Idexx).

Row | Compound | IC50
1 | O=C(O)c1ccc(/C=C/c2ccccc2-c2ccccc2)cc1 [NPC 18730, 4-[2-(biphenyl)-E-ethenyl]benzoic acid] | 25.7 µM

Each compound was assayed on polymorphonuclear neutrophils (assay: Adherence of PMN to serum coated wells, PAF). Details: Homo sapiens, Polymorphonuclear neutrophil, 10 min, PAF 1 μM, read-out: IC50 to inhibit adhesion, PAF serum.
Format: cell-based
Excerpt: as §1, §2

Row | Compound | IC50
2 | O=C(O)c1ccc(/C=C/c2ccccc2-c2ccccc2)cc1 [NPC 18730, 4-[2-(biphenyl)-E-ethenyl]benzoic acid] | 2400 nM

These compounds were tested on neutrophils (assay: Elastase release from neutrophils, PAF). Details: Homo sapiens, Neutrophil; PAF 20 nM, cytochalasin b; read-out: IC50 to inhibit elastase release, PAF/ER.
Format: cell-based
Excerpt: as §1
(§3) Elastase release. Neutrophils (5×10^6 /ml in HBSS) were preincubated for 5 min at 37° C. with cytochalasin b (5 μg/ml). Experiments were performed in microtubes (96 per rack) to which were added the cell suspension, test compound (50 nM-500 μM), and one of several activators (fMLP, 200 nM, C5a, 24 nM; PAF, 20nM). After incubation (30 min, 37° C.) the tubes were centrifuged (1 min, 1500 rpm) and the supernatants assayed for elastase activity according to the following protocol:
(§4) Specifically, 10 μl of purified human neutrophil elastase standard or of sample was added to 70 μl or 0.1M Tris pH 7.5, 0.5% Brij detergent and 10 μl or 5 mM elastase substrate (methoxysuccinyl-alanyl-alanyl-prolyl-valyl paranitroanilide) in a 96 well microliter plate. Plates were indubated for 60 min at 37° C. and absorbance was read at 410 nm on a microplate reader. Elastase activity was quantitated relative to standards.

Row | Compound | IC50
3 | O=C(O)c1ccc(/C=C/c2ccccc2-c2ccccc2)cc1 [NPC 18730, 4-[2-(biphenyl)-E-ethenyl]benzoic acid] | 3.23 µM

Each compound was assayed on neutrophil accumulation in the cutaneous Reverse Passive Arthus reaction (assay: Neutrophil accumulation in the cutaneous Reverse Passive Arthus reaction in rats). Details: rat, i.p., 1.4 mg/kg, n = 4.
Format: in vivo, Male Sprague Dawley rats
Description: (§5) Two in vivo models of inflammation were used to assess the anti-inflammatory activity of compounds of the invention. One model measures neutrophil accumulation in thioglycollate-induced peritonitis in mice. The other measures neutrophil accumulation in the cutaneous Reverse Passive Arthus reaction in rats. These assays were carried out as follows.
Male Sprague Dawley rats were treated with test compounds by intraperitoneal injection of 1.4 mg/kg in 1% Tween, pH 9.0 vehicle. After 1 hr, animals were lightly anesthetized with 2% isoflurane, v/v, injected by intravenous route with 1 ml of 5 mg/ml human serum albumin, immediately follwed by intracutaneous administration of 75 μl of a solution of 4 mg/ml of goat anti-human serum albumin. Animals were anesthetized 4 hrs after antigen-antibody treatment. Punch biopsies of the dorsal injection sites were performed with one biopsy weighed for wet/dry weight ratio determination. The remaining two skin biopsies were used for measuring myeloperoxidase content and were minced, weighed and homogenized for 30 sec in 20 mM phosphate buffer (pH 7.4). After centrifugation (20 min, 6000×g, 4° C.) the supernatant was decanted and the pellet resuspended in 50 mM phosphate buffer (pH 6.0) containing 0.5% hexadecyltrimethylammonium bromide. After three freeze/thaw cycles, the pellet was centrifuged (15 min, 20000×g, 4° C.) and 100 μl aliquots were added to 2.9 ml of assay buffer (50 mM phosphate buffer, 0.167 mg/ml o-dianiside, 0.05% H2 O2, pH 6.0). Absorbance at 460 nm was measured at 15 min. Results shown in Table IV were calculated as absorbance units/g dry weight.

Row | Compound | Reverse Passive Arthus % Inhibition
4 | O=C(O)c1ccc(/C=C/c2ccccc2-c2ccccc2)cc1 [NPC 18730, 4-[2-(biphenyl)-E-ethenyl]benzoic acid] | 40%

The compounds below were run on neutrophils (assay: Superoxide production by PMN, fMLP). Details: Homo sapiens, Neutrophil; fMLP 300 nM, TNF preincubation; read-out: IC50 to inhibit superoxide production, fMLP/O2.
Format: cell-based
Excerpt: as §1
(§6) Superoxide production. Superoxide production by PMN was measured as the superoxide dismutase (SOD)-inhibitable reduction of ferricytochrome c. […] Therefore, subsequent experiments were performed in the presence of cytochrome c only. In all cases, experiments were carried out in 96 well plates. Before the addition of cells, plates were coated by incubating each well with 200 μl of 10% human serum for 1 h in 37° C. Plates were then washed several times with PBS containing 10 mM CaCl2 and MgCl2. Neutrophils, resuspended in Hank's balanced salt solution (HBSS) to a final concentration of 4×10^6 cells/ml, were preincubated with TNF (10 ng/ml) for 10 min at 37° C. in the presence of cytochrome c (75 μm). Experiments were then performed with 100 μl of this cell suspension added to each well, followed by the addition of 10 μl of an aqueous dilution of test compound (50 nm-[…]). Immediately after the addition of test compound, a 10 μl aliquot of activators (fMLP, 300 nM; PAF, 20 nM; C5a, 5 μg/ml) was added to each well. Plates were immediately transferred to a preheated Thermomax kinetic microplate reader and the change in absorbance at […] was recorded over a 3 min period.

Row | Compound | IC50
5 | O=C(O)c1ccc(/C=C/c2ccccc2-c2ccccc2)cc1 [NPC 18730, 4-[2-(biphenyl)-E-ethenyl]benzoic acid] | 340 nM

Each compound was assayed on neutrophils (assay: Superoxide production by PMN, PAF). Details: Homo sapiens, Neutrophil; PAF 20 nM, TNF preincubation; read-out: IC50 to inhibit superoxide production, PAF/O2.
Format: cell-based
Excerpt: as §1, §6

Row | Compound | IC50
6 | O=C(O)c1ccc(/C=C/c2ccccc2-c2ccccc2)cc1 [NPC 18730, 4-[2-(biphenyl)-E-ethenyl]benzoic acid] | 3000 nM

Each compound was assayed on polymorphonuclear neutrophils (assay: Adherence of PMN to serum coated wells, TNF-α). Details: Homo sapiens, Polymorphonuclear neutrophil, 20 min, TNF-α 3 nM, read-out: IC50 to inhibit adhesion, TNF-α serum.
Format: cell-based
Excerpt: as §1, §2

Row | Compound | IC50
7 | O=C(O)c1ccc(/C=C/c2ccccc2-c2ccccc2)cc1 [NPC 18730, 4-[2-(biphenyl)-E-ethenyl]benzoic acid] | 2900 nM

What follows are compounds tested on neutrophils (assay: Elastase release from neutrophils, fMLP). Details: Homo sapiens, Neutrophil; fMLP 200 nM, cytochalasin b; read-out: IC50 to inhibit elastase release, fMLP/ER.
Format: cell-based
Excerpt: as §1, §3, §4

Row | Compound | IC50
8 | O=C(O)c1ccc(/C=C/c2ccccc2-c2ccccc2)cc1 [NPC 18730, 4-[2-(biphenyl)-E-ethenyl]benzoic acid] | 6.25 µM

These compounds were tested on neutrophil accumulation in thioglycollate-induced peritonitis (assay: Neutrophil accumulation in thioglycollate-induced peritonitis in the mouse). Details: iv, 4 h.
Format: in vivo, Male CF-1 mice
Description: as §5
Male CF-1 mice were pretreated with individual test compound (4-6 mice per compound) 10 min prior to thioglycollate treatment. Test compounds at various doses, solubilized in 1% Tween, pH 9.0, were injected into the tail vein. Thioglycollate (4% Brewer's thioglycollate broth in water) was administered intraperitoneally in 1 ml volume. Peritoneal lavages, performed 4 hrs following thioglycollate treatment, involved injecting 5 ml of Dulbecco's phosphate buffered saline with 0.1% bovine serum albumin and 10 units/ml heparin into the peritoneal cavity, massaging the peritoneum, and then removing fluid through peritoneal aspiration. The lavage fluid was centrifuged, red blood cells lysed with water, cells were resuspended in Hank's balanced salt solution, and leukocytes were counted with a modified Neubauer hemacytometer. Leukocyte preparations (cytospin slides) were differentially stained with a Giemsa stain. Neutrophil accumulation expressed as a percent of control was calculated after the subtraction of baseline neutrophils from all treatement groups (see Table III).

Row | Compound | ED50
9 | O=C(O)c1ccc(/C=C/c2ccccc2-c2ccccc2)cc1 [NPC 18730, 4-[2-(biphenyl)-E-ethenyl]benzoic acid] | 0.8 mg/kg

Same assay, conditions: mouse, i.v., 0.3 mg/kg, 4 hrs

Row | Compound | % Inhibition of neutrophil accumulation
10 | O=C(O)c1ccc(/C=C/c2ccccc2-c2ccccc2)cc1 [NPC 18730, 4-[2-(biphenyl)-E-ethenyl]benzoic acid] | 16%

Same assay, conditions: mouse, i.v., 1 mg/kg, 4 hrs

Row | Compound | % Inhibition of neutrophil accumulation
11 | O=C(O)c1ccc(/C=C/c2ccccc2-c2ccccc2)cc1 [NPC 18730, 4-[2-(biphenyl)-E-ethenyl]benzoic acid] | 20%

Same assay, conditions: mouse, i.v., 3 mg/kg, 4 hrs

Row | Compound | % Inhibition of neutrophil accumulation
12 | O=C(O)c1ccc(/C=C/c2ccccc2-c2ccccc2)cc1 [NPC 18730, 4-[2-(biphenyl)-E-ethenyl]benzoic acid] | 67%

Same assay, conditions: mouse, i.v., 10 mg/kg, 4 hrs

Row | Compound | % Inhibition of neutrophil accumulation
13 | O=C(O)c1ccc(/C=C/c2ccccc2-c2ccccc2)cc1 [NPC 18730, 4-[2-(biphenyl)-E-ethenyl]benzoic acid] | 37%

Same assay, conditions: mouse, i.v., 30 mg/kg, 4 hrs

Row | Compound | % Inhibition of neutrophil accumulation
14 | O=C(O)c1ccc(/C=C/c2ccccc2-c2ccccc2)cc1 [NPC 18730, 4-[2-(biphenyl)-E-ethenyl]benzoic acid] | 48%
